Laboratory results: ChEMBL document CHEMBL1909046, “DrugMatrix in vitro pharmacology data”

What was measured:
[1] = target: Mitogen-activated protein kinase 1 (Homo sapiens, UniProt P28482); experiment: DRUGMATRIX: Protein Serine/Threonine Kinase, ERK2 enzyme inhibition (substrate: Myelin Basic Protein); design: species or system Escherichia coli; settings: Not Active = under 50% inhibition at 10 µM
[2] = DRUGMATRIX: ATPase, Na+/K+ enzyme inhibition (substrate: ATP); type: tissue-based, Sus scrofa, Heart; settings: Not Active = under 50% inhibition at 10 µM
[3] = target: T1, Receptor-type tyrosine-protein phosphatase C (Homo sapiens, UniProt P08575); design: species or system Escherichia coli;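 note: inhibition of CD45 enzyme activity measured using DiFMUP as substrate; in other assays of this panel Not Active means under 50% inhibition at 10 µM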
T1 sequence (P08575 whole entry): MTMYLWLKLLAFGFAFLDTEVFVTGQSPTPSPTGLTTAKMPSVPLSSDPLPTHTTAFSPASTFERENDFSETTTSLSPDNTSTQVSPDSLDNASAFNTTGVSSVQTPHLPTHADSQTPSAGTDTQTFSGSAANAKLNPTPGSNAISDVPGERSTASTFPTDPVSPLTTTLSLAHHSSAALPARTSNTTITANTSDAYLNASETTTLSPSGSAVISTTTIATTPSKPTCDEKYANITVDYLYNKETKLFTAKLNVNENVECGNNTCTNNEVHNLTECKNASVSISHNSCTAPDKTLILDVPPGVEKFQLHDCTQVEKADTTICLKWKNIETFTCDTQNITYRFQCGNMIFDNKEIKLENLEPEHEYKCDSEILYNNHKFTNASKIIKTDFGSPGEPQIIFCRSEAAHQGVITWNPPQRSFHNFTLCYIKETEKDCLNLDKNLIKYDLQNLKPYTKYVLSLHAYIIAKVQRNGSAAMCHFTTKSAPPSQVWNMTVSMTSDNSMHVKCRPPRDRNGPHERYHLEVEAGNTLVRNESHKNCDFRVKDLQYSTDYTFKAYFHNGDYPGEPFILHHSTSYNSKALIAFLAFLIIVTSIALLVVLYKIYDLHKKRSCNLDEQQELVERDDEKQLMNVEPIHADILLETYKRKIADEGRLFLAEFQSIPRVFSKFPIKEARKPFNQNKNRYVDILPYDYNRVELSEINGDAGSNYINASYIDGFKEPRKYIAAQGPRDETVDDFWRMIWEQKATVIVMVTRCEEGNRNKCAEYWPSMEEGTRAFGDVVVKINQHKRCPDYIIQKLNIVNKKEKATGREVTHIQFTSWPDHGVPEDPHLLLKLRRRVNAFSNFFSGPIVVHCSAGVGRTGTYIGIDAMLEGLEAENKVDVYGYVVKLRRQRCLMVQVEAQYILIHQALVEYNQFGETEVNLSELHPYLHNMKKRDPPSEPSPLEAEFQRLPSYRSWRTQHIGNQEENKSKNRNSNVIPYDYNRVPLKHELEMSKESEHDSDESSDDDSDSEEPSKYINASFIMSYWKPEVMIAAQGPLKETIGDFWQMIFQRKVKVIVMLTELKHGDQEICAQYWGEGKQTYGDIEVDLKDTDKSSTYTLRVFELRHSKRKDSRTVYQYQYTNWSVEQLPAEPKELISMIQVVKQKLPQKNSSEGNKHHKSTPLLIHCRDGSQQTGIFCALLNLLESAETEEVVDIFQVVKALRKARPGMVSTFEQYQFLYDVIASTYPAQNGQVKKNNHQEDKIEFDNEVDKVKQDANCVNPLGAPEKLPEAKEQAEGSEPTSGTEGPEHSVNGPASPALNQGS

[4] = DRUGMATRIX: beta-Lactamase enzyme inhibition (substrate: Nitrocefin); design: species or system Bacillus cereus; settings: Not Active = under 50% inhibition at 10 µM
[5] = target: Cytochrome P450 2C19 (Homo sapiens, UniProt P33261); settings: bti-tn-5b1-4; note: in other assays of this panel Not Active means under 50% inhibition at 10 µM
Sequence of Cytochrome P450 2C19 (P33261 whole entry): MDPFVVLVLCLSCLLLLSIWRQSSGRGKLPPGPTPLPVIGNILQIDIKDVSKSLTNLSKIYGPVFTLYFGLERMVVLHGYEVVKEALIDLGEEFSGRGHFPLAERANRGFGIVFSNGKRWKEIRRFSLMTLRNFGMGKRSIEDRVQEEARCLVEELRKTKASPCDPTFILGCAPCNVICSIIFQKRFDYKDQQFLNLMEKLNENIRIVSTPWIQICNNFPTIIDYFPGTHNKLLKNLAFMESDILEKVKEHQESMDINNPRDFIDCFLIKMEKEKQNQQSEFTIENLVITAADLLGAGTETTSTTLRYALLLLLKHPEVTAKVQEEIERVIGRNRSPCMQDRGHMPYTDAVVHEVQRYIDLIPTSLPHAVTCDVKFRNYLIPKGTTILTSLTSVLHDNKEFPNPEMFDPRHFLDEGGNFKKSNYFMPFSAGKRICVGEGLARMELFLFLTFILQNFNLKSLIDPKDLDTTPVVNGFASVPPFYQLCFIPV

[6] = target: T2, Vasoactive intestinal polypeptide receptor 1 (Homo sapiens, UniProt P32241); type: cell membranes, Membrane; settings: ht-29; note: in other assays of this panel Not Active means under 50% inhibition at 10 µM
T2 sequence (P32241 whole entry): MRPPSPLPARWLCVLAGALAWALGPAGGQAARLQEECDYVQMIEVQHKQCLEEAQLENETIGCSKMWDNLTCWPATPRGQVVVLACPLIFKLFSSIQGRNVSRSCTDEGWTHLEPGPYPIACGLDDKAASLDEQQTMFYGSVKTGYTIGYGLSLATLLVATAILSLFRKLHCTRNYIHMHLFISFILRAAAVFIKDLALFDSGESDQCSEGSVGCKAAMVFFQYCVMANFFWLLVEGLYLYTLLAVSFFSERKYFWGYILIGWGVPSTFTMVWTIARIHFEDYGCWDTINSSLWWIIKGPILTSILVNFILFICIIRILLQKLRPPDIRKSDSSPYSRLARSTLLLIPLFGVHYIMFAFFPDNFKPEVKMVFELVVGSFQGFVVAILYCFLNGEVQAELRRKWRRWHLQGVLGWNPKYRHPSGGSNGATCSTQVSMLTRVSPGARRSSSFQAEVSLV

[7] = target: Beta-3 adrenergic receptor (Homo sapiens, UniProt P13945); experiment: DRUGMATRIX: Adrenergic beta3 radioligand binding (ligand: [125I] Cyanopindolol); type: cell membranes, HEK293, Membrane; settings: hek293; Not Active = under 50% inhibition at 10 µM
Sequence of Beta-3 adrenergic receptor (P13945 whole entry): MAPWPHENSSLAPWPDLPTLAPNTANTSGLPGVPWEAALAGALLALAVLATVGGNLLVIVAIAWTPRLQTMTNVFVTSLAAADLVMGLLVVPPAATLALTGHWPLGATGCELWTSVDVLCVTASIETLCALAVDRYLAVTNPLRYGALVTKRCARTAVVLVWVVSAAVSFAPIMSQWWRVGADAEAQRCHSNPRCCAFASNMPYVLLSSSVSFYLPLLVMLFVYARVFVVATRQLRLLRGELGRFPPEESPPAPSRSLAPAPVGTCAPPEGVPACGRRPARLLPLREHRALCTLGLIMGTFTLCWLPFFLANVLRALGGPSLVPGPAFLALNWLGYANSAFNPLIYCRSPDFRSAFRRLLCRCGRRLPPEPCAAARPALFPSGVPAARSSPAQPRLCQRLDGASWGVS

[8] = DRUGMATRIX: Platelet-Derived Growth Factor (PDGF) radioligand binding (ligand: [125I] PDGF); type: cell-based; settings: nih3t3; Not Active = under 50% inhibition at 10 µM

Sequence of Mitogen-activated protein kinase 1 (P28482 whole entry): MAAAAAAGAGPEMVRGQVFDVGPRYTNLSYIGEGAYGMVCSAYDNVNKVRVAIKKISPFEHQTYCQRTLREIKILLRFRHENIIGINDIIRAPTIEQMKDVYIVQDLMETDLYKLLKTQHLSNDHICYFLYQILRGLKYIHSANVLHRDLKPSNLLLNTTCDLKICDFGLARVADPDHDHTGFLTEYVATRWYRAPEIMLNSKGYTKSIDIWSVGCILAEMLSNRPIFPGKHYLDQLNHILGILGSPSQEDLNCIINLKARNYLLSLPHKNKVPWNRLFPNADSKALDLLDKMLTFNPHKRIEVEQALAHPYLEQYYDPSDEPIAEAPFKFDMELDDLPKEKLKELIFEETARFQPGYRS

Compound | IC50 ([1]; read-out: IC50) [µM] | IC50 [2] | Ki [2] | IC50 [3] | IC50 [4] | Ki [4] | IC50 [5] | Ki [5] | IC50 [6] | IC50 [7] | IC50 [8] | Ki [8] | IC50 [1] | Ki [1] | Ki [3] | Ki [6] | Ki [7]
CC1=C(CC(=O)O)c2cc(F)ccc2/C1=C\c1ccc(S(C)(=O)=O)cc1 [EXISULIND] | 13.8 | Not Active | Not Active | Not Active | Not Active | Not Active | Not Active | Not Active | Not Active | Not Active | Not Active | Not Active | – | – | – | – | –
COc1ncnc(NS(=O)(=O)c2ccc(N)cc2)c1OC [SULFADOXINE] | – | Not Active | Not Active | Not Active | Not Active | Not Active | Not Active | Not Active | Not Active | Not Active | Not Active | Not Active | Not Active | – | – | – | –
Cc1cn([C@H]2C[C@H](N=[N+]=[N-])[C@@H](CO)O2)c(=O)[nH]c1=O [ZIDOVUDINE] | – | Not Active | Not Active | Not Active | Not Active | Not Active | Not Active | Not Active | Not Active | Not Active | Not Active | Not Active | Not Active | – | – | – | –
THIMEROSAL | – | Not Active | Not Active | Not Active | Not Active | Not Active | Not Active | Not Active | Not Active | Not Active | Not Active | Not Active | Not Active | Not Active | Not Active | Not Active | Not Active
NC[C@H]1O[C@H](O[C@H]2[C@H](O)[C@@H](O[C@H]3O[C@H](CO)[C@@H](O)[C@H](N)[C@H]3O)[C@H](N)C[C@@H]2N)[C@H](N)C[C@@H]1O [TOBRAMYCIN] | – | Not Active | Not Active | Not Active | Not Active | Not Active | Not Active | Not Active | Not Active | Not Active | Not Active | Not Active | Not Active | – | – | – | –
O=P(O)(O)C(O)(Cc1cccnc1)P(=O)(O)O [RISEDRONIC ACID] | – | Not Active | Not Active | Not Active | Not Active | Not Active | Not Active | Not Active | Not Active | Not Active | Not Active | Not Active | Not Active | – | – | – | –
Nc1ccc(S(=O)(=O)Nc2nccs2)cc1 [SULFATHIAZOLE] | – | Not Active | Not Active | Not Active | Not Active | Not Active | Not Active | Not Active | Not Active | Not Active | Not Active | Not Active | Not Active | – | – | – | –
Nc1ccc(S(=O)(=O)Nc2ncccn2)cc1 [SULFADIAZINE] | – | Not Active | Not Active | Not Active | Not Active | Not Active | Not Active | Not Active | Not Active | Not Active | Not Active | Not Active | Not Active | – | – | – | –
